Laboratory results from ChEMBL document CHEMBL3399969, “Multifunctional scutellarin-rivastigmine hybrids with cholinergic, antioxidant, biometal chelating and neuroprotective properties for the treatment of Alzheimer's disease” (Bioorg Med Chem, 2015).

Tests used:
[1] = Antioxidant activity assessed as trolox equivalent of […]-induced radical scavenging activity by ORAC-FL method; format: physicochemical
Acetylcholinesterase = molecular target: T1, Acetylcholinesterase (Rattus norvegicus, UniProt P37136); experiment: Inhibition of rat cortex AChE using acetylthiocholine iodide as substrate after 15 mins by Ellman method
T1 sequence (P37136 whole entry): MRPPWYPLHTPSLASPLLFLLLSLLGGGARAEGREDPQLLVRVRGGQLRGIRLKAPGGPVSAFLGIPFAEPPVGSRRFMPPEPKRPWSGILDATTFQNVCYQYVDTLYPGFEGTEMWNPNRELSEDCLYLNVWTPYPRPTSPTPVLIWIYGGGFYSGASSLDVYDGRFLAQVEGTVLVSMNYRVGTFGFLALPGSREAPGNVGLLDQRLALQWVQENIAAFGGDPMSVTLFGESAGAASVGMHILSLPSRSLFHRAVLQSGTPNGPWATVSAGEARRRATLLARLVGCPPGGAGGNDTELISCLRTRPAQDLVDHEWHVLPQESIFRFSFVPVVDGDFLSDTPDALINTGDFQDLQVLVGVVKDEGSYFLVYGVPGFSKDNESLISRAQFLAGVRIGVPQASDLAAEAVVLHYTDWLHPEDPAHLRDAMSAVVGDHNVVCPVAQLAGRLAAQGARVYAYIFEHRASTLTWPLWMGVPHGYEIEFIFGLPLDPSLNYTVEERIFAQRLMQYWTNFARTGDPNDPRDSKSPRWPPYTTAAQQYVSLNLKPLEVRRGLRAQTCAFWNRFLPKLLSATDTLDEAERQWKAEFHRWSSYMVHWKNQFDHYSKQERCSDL

PC-12 = experiment: Neuroprotective effect against H2O2-induced rat PC12 cell injury assessed as cell viability at 10 uM incubated for 2 hrs prior to H2O2 challenge measured after 24 hrs by MTT assay (reference value: 57.6%); format: functional; settings: read-out: Activity
[2] = Inhibition of rat serum BuChE using butyrylthiocholine iodide as substrate after 15 mins by Ellman method; format: cell-free
Rattus norvegicus = species: Rattus norvegicus; experiment: Selectivity index, ratio of IC50 for rat serum BuChE to IC50 for rat cortex AChE; format: cell-free

| SMILES | Activity [1] | IC50 (Acetylcholinesterase) | viability at 10 µM (PC-12) | IC50 [2] | Ratio IC50 (Rattus norvegicus) |
| --- | --- | --- | --- | --- | --- |
| CCN(CC)C(=O)Oc1cccc(-c2cc(=O)c3c(OC)c(OC)c(OC)cc3o2)c1 | 0.31 | 6.11 µM | 70.8% | 30.1 µM | 4.9 |
| COc1cc2oc(-c3ccc(OC(=O)N(C)C)cc3)cc(=O)c2c(O)c1OC | 1.2 | 17.3 µM | 76.7% | 61.5 µM | 3.6 |
| COc1cc2oc(-c3cccc(OC(=O)N4CCCCC4)c3)cc(=O)c2c(O)c1OC | 1.1 | > 100 µM |  | > 100 µM |  |
| CCN(C)C(=O)Oc1ccc(-c2cc(=O)c3c(OC)c(OC)c(OC)cc3o2)cc1 | 0.34 | 1.54 µM | 75.1% | 6.2 µM | 4 |
| COc1cc2oc(-c3cccc(OC(=O)N4CCN(C)CC4)c3)cc(=O)c2c(OC)c1OC | 0.36 | 31.2 µM | 82.1% | > 100 µM | > 3.2 |
| COc1cc2oc(-c3ccc(OC(=O)N4CCN(Cc5ccccc5)CC4)cc3)cc(=O)c2c(OC)c1OC | 0.32 | 1.04 µM | 81.9% | 37.2 µM | 35.8 |
| COc1cc2oc(-c3ccc(OC(=O)N(C(C)C)C(C)C)cc3)cc(=O)c2c(OC)c1OC | 0.33 | 13.7 µM |  | 38.2 µM | 2.8 |
| COc1cc2oc(-c3cccc(OC(=O)N4CCN(C)CC4)c3)cc(=O)c2c(O)c1OC | 1.2 | 23.3 µM |  | 68.2 µM | 2.9 |
| COc1cc2oc(-c3cccc(OC(=O)N(C(C)C)C(C)C)c3)cc(=O)c2c(OC)c1OC | 0.3 | 87.5 µM |  | > 100 µM | > 1.1 |
| COc1cc2oc(-c3cccc(OC(=O)N4CCN(Cc5ccccc5)CC4)c3)cc(=O)c2c(O)c1OC | 1.3 | 51.7 µM | 80.3% | 15.7 µM | 0.3 |
| COc1cc2oc(-c3cccc(OC(=O)N(C(C)C)C(C)C)c3)cc(=O)c2c(O)c1OC | 1.1 | 96.5 µM |  | > 100 µM | > 1 |
| COc1cc2oc(-c3cccc(OC(=O)N4CCCCC4)c3)cc(=O)c2c(OC)c1OC | 0.31 | 45.7 µM | 72.5% | 26.8 µM | 0.6 |
| COc1cc2oc(-c3ccc(OC(=O)N4CCCCC4)cc3)cc(=O)c2c(O)c1OC | 1.1 | 17.8 µM | 79.6% | > 100 µM | > 5.6 |
| COc1cc2oc(-c3ccc(OC(=O)N4CCN(Cc5ccccc5)CC4)cc3)cc(=O)c2c(O)c1OC | 0.9 | 9.25 µM | 84.5% | > 100 µM | > 10.8 |
| COc1cc2oc(-c3ccc(OC(=O)N(C)C)cc3)cc(=O)c2c(OC)c1OC | 0.32 | 8.24 µM | 73.5% | 7.3 µM | 0.9 |
| CCN(C)C(=O)Oc1cccc(-c2cc(=O)c3c(OC)c(OC)c(OC)cc3o2)c1 | 0.32 | 7.37 µM | 70.8% | 38.1 µM | 5.2 |
| CCN(CC)C(=O)Oc1cccc(-c2cc(=O)c3c(O)c(OC)c(OC)cc3o2)c1 | 1.3 | 10.3 µM |  | 34.5 µM | 3.3 |

| SMILES | Activity [1] | IC50 (Acetylcholinesterase) | viability at 10 µM (PC-12) | IC50 [2] | Ratio IC50 (Rattus norvegicus) |
| --- | --- | --- | --- | --- | --- |
| COc1cc2oc(-c3ccc(OC(=O)N4CCOCC4)cc3)cc(=O)c2c(O)c1OC | 0.9 | > 100 µM | 66.5% | > 100 µM |  |
| COc1cc2oc(-c3cccc(OC(=O)N(C)C)c3)cc(=O)c2c(O)c1OC | 1.2 | 25.7 µM |  | 23.6 µM | 0.9 |
| COc1cc2oc(-c3ccc(OC(=O)N4CCN(C)CC4)cc3)cc(=O)c2c(OC)c1OC | 0.29 | 11.4 µM | 82.4% | 63.8 µM | 5.6 |
| COc1cc2oc(-c3cccc(OC(=O)N4CCOCC4)c3)cc(=O)c2c(OC)c1OC | 0.29 | > 100 µM |  | > 100 µM |  |
| CCN(C)C(=O)Oc1cccc(-c2cc(=O)c3c(O)c(OC)c(OC)cc3o2)c1 | 0.9 | 14.8 µM |  | > 100 µM | > 6.8 |
| COc1cc2oc(-c3cccc(O)c3)cc(=O)c2c(OC)c1OC | 1.8 | > 100 µM |  | > 100 µM |  |
| COc1cc2oc(-c3ccc(OC(=O)N4CCN(C)CC4)cc3)cc(=O)c2c(O)c1OC | 1 | 5 µM |  | > 100 µM | > 20 |
| COc1cc2oc(-c3cccc(OC(=O)N4CCN(Cc5ccccc5)CC4)c3)cc(=O)c2c(OC)c1OC | 0.34 | 87.1 µM |  | 7.1 µM | 0.1 |
| COc1cc2oc(-c3ccc(O)cc3)cc(=O)c2c(OC)c1OC | 2.6 | > 100 µM |  | > 100 µM |  |
| COc1cc2oc(-c3ccc(O)cc3)cc(=O)c2c(O)c1OC [CIRSIMARITIN] | 5.4 | > 100 µM |  | > 100 µM |  |
| COc1cc2oc(-c3ccc(OC(=O)N(C(C)C)C(C)C)cc3)cc(=O)c2c(O)c1OC | 1 | > 100 µM | 68.7% | > 100 µM |  |
| COc1cc2oc(-c3ccc(OC(=O)N4CCCCC4)cc3)cc(=O)c2c(OC)c1OC | 0.31 | 21.2 µM | 65.2% | 15.3 µM | 0.7 |
| COc1cc2oc(-c3cccc(O)c3)cc(=O)c2c(O)c1OC | 3.7 | > 100 µM |  | > 100 µM |  |
| COc1cc2oc(-c3cccc(OC(=O)N4CCOCC4)c3)cc(=O)c2c(O)c1OC | 1.2 | > 100 µM | 66.1% | > 100 µM |  |
| COc1cc2oc(-c3ccc(OC(=O)N4CCOCC4)cc3)cc(=O)c2c(OC)c1OC | 0.27 | 68.3 µM |  | > 100 µM | > 1.5 |
| COc1cc2oc(-c3cccc(OC(=O)N(C)C)c3)cc(=O)c2c(OC)c1OC | 0.28 | 37.3 µM | 69.3% | 28.3 µM | 0.8 |
| CCN(C)C(=O)Oc1ccc(-c2cc(=O)c3c(O)c(OC)c(OC)cc3o2)cc1 | 1.1 | 2.1 µM | 78.3% | 38.1 µM | 18.1 |
